From patent publication EP0076430A1, “Compositions having antimicrobial activity” (MEDEA RESEARCH S.r.l., priority 1981, dated 1983)
Values after ≈ are worked out from the molar mass of the structure shown.

How the values were obtained:
Bacillaceae = assay: Minimum inhibitory concentration (MIC), broth dilution; assay type: cell-based; conditions: 24 h; strain 1722
Protocol: (§1) Different bacterial species isolated from patients are employed.
(§2) Compounds AB5 and AB6 are dissolved in ethanol (ethyl alcohol 95°, C. Erba) and all the subsequent dilutions performed in distilled water. The chlorhexidine is diluted from the commercial product already dissolved in distilled water.
(§3) The broth dilution is employed to assess MIC values for all strains. Sterile microtiter plates with U bottom with 96 wells are employed. 0.1 Ml of liquid medium (tryptose Roche broth) are put in each well, the plates are kept at -20° and, before use, at room temperature.
(§4) The disinfectant agent is put in the wells of the row 2 at a concentration of 4000 mcg/ml (real 2000 mcg/ml) and then with a 100 µl micro- pipette dilutions are performed from row 2 to row 11.
(§5) The row 1 is the control of the medium and the row 12 is the control for the fertility of the medium itself.
(§6) After having performed the dilutions, 0.01 ml of a 24 hrs bacterial broth culture (previously diluted at 10^-4 for Gram-negative strains and 10-2 for Gram-positive ones) are placed in all wells, from the rows 2 to 12. After the inoculation, the plate is hermetical ly sealed with adhesive transparent band and an hole is done with a needle. The plates are kept at 35° for 24 hours and a macroscopic reading is carried out; in case of non uniform reading, taking place only for chlorhexidine, the cultures from the wells are plated on agar-heart-brain medium (Sclavo) through Dinatech apparatus (head "Inoculum 96") and the reading of the growth is carried out in the following 24 hours.

E.coli = assay: as above; assay type: cell-based; conditions: Escherichia coli, 24 h
Protocol: as §1, §2, §3, §4, §5, §6

Enterobacter = assay: as above; assay type: cell-based; conditions: 24 h, strain 2643
Protocol: as §1, §2, §3, §4, §5, §6

Indole-positive Proteus [1] = assay: as above; assay type: cell-based; conditions: 24 h
Protocol: as §1, §2, §3, §4, §5, §6

Pseudomonas aeruginosa [2] = assay: as above; assay type: cell-based; conditions: 24 h
Protocol: as §1, §2, §3, §4, §5, §6

Salmonella sp. [3] = assay: as above; assay type: cell-based; conditions: 24 h, strain 2482
Protocol: as §1, §2, §3, §4, §5, §6

Serratia marcescens [4] = assay: as above; assay type: cell-based; conditions: 24 h, strain 1814
Protocol: as §1, §2, §3, §4, §5, §6

Staph. aureus [5] = assay: as above; assay type: cell-based; conditions: Staphylococcus aureus, 24 h; strain 2672
Protocol: as §1, §2, §3, §4, §5, §6

E. coli = assay: Bactericide activity at different contact times; assay type: cell-based; design: key to Bactericide action (growth / no growth): + = growth; - = no growth; conditions: 100 p.p.m.
Protocol: as §1, §2
(§7) It is assessed through Dinatech apparatus with "Inoculum 96" head.
(§8) Chemical compounds at established concentra tions are placed in amount of 1 ml in the con tainers, the bacterial inoculum is then added in amount of 0.1 ml (24 hrs culture) and at pre-established times (3,5,10,30,60 and 120 mi nutes), through the head, the mixture compound/ disinfectant agent is transferred in solid medium (agar-heart-brain medium). After incubation at 35°C for 24 hours, the reading is carried out. The tests are repeated in presence of human serum at the concentration of 10%.

Indole-positive Proteus [6] = assay: Bactericide activity at different contact times; assay type: cell-based; design: key to Bactericide action (growth / no growth): + = growth; - = no growth; conditions: 100 p.p.m.
Protocol: as §1, §2, §7, §8

Serratia marcescens [7] = assay: Bactericide activity at different contact times; assay type: cell-based; design: key to Bactericide action (growth / no growth): + = growth; - = no growth; conditions: 100 p.p.m.
Protocol: as §1, §2, §7, §8

Pseudomonas aeruginosa [8] = assay: Bactericide activity at different contact times; assay type: cell-based; design: key to Bactericide action (growth / no growth) / Bactericide activity (growth / no growth), serum interference test: + = growth; - = no growth
Protocol: as §1, §2, §7, §8

B. subtilis = assay: Bactericide activity at different contact times; assay type: cell-based; design: key: + = growth; - = no growth; conditions: 100 p.p.m.
Protocol: as §1, §2, §7, §8

Salmonella sp. [9] = assay: Bactericide activity at different contact times; assay type: cell-based; design: key: + = growth; - = no growth; conditions: 100 p.p.m.
Protocol: as §1, §2, §7, §8

Staph. aureus [10] = assay: Bactericide activity at different contact times; assay type: cell-based; design: key: + = growth; - = no growth; conditions: 100 p.p.m.
Protocol: as §1, §2, §7, §8

[11] = Toxicity, LD50 by intraperitoneal route; conditions: mouse, in vivo, ip, mice

NC(=NI)c1ccccc1 [AB6]
MIC (Bacillaceae): 31.2 µg/mL (≈ 0.127 mM)
MIC (E.coli; strain 2094): > 1000 µg/mL
MIC (E.coli; strain 2096): > 1000 µg/mL
MIC (E.coli; strain 2117): > 1000 µg/mL
MIC (E.coli; strain 2456): > 1000 µg/mL
MIC (E.coli; strain 2568): 2000 µg/mL (≈ 8.13 mM)
MIC (Enterobacter): 1000 µg/mL (≈ 4.06 mM)
MIC (Indole-positive Proteus [1]; strain 2075): > 1000 µg/mL
MIC (Indole-positive Proteus [1]; strain 2083): > 1000 µg/mL
MIC (Indole-positive Proteus [1]; strain 2105): > 1000 µg/mL
MIC (Indole-positive Proteus [1]; strain 2410): > 2000 µg/mL
MIC (Indole-positive Proteus [1]; strain 2447): > 2000 µg/mL
MIC (Indole-positive Proteus [1]; strain 2674): 1000 µg/mL (≈ 4.06 mM)
MIC (Pseudomonas aeruginosa [2]; strain 2084): > 1000 µg/mL
MIC (Pseudomonas aeruginosa [2]; strain 2458): > 1000 µg/mL
MIC (Pseudomonas aeruginosa [2]; strain 2488): 1000 µg/mL (≈ 4.06 mM)
MIC (Pseudomonas aeruginosa [2]; strain 2508): 1000 µg/mL (≈ 4.06 mM)
MIC (Pseudomonas aeruginosa [2]; strain 2509): 1000 µg/mL (≈ 4.06 mM)
MIC (Pseudomonas aeruginosa [2]; strain 2670): 1000 µg/mL (≈ 4.06 mM)
MIC (Salmonella sp. [3]): > 1000 µg/mL
MIC (Serratia marcescens [4]): 125 µg/mL (≈ 0.508 mM)
MIC (Staph. aureus [5]): 1000 µg/mL (≈ 4.06 mM)
Bactericide action (growth / no growth) (E. coli; contact time 3 min): +
Bactericide action (growth / no growth) (E. coli; contact time 5 min): +
Bactericide action (growth / no growth) (E. coli; contact time 10 min): -
Bactericide action (growth / no growth) (E. coli; contact time 30 min): -
Bactericide action (growth / no growth) (E. coli; contact time 60 min): -
Bactericide action (growth / no growth) (E. coli; contact time 120 min): -
contact time for total bactericide activity (Indole-positive Proteus [6]): ≤ 3 min
Bactericide action (growth / no growth) (Indole-positive Proteus [6]; contact time 3 min): -
Bactericide action (growth / no growth) (Indole-positive Proteus [6]; contact time 5 min): -
Bactericide action (growth / no growth) (Indole-positive Proteus [6]; contact time 10 min): -
Bactericide action (growth / no growth) (Indole-positive Proteus [6]; contact time 30 min): -
Bactericide action (growth / no growth) (Indole-positive Proteus [6]; contact time 60 min): -
Bactericide action (growth / no growth) (Indole-positive Proteus [6]; contact time 120 min): -
longest time in which it is active (Serratia marcescens [7]): 30 min
Bactericide action (growth / no growth) (Serratia marcescens [7]; contact time 3 min): +
Bactericide action (growth / no growth) (Serratia marcescens [7]; contact time 5 min): +
Bactericide action (growth / no growth) (Serratia marcescens [7]; contact time 10 min): +
Bactericide action (growth / no growth) (Serratia marcescens [7]; contact time 30 min): -
Bactericide action (growth / no growth) (Serratia marcescens [7]; contact time 60 min): -
Bactericide action (growth / no growth) (Serratia marcescens [7]; contact time 120 min): -
contact time for total bactericide activity (Pseudomonas aeruginosa [8]; 100 p.p.m.): ≤ 3 min
Bactericide action (growth / no growth) (Pseudomonas aeruginosa [8]; contact time 3 min, 100 p.p.m.): -
Bactericide activity (growth / no growth), serum interference test (Pseudomonas aeruginosa [8]; contact time 3 min, with human serum (10%)): +
Bactericide activity (growth / no growth), serum interference test (Pseudomonas aeruginosa [8]; contact time 3 min, without serum): -
Bactericide action (growth / no growth) (Pseudomonas aeruginosa [8]; contact time 5 min, 100 p.p.m.): -
Bactericide activity (growth / no growth), serum interference test (Pseudomonas aeruginosa [8]; contact time 5 min, with human serum (10%)): +
Bactericide activity (growth / no growth), serum interference test (Pseudomonas aeruginosa [8]; contact time 5 min, without serum): -
Bactericide action (growth / no growth) (Pseudomonas aeruginosa [8]; contact time 10 min, 100 p.p.m.): -
Bactericide activity (growth / no growth), serum interference test (Pseudomonas aeruginosa [8]; contact time 10 min, with human serum (10%)): +
Bactericide activity (growth / no growth), serum interference test (Pseudomonas aeruginosa [8]; contact time 10 min, without serum): -
Bactericide action (growth / no growth) (Pseudomonas aeruginosa [8]; contact time 30 min, 100 p.p.m.): -
Bactericide activity (growth / no growth), serum interference test (Pseudomonas aeruginosa [8]; contact time 30 min, with human serum (10%)): +
Bactericide activity (growth / no growth), serum interference test (Pseudomonas aeruginosa [8]; contact time 30 min, without serum): -
Bactericide action (growth / no growth) (Pseudomonas aeruginosa [8]; contact time 60 min, 100 p.p.m.): -
Bactericide activity (growth / no growth), serum interference test (Pseudomonas aeruginosa [8]; contact time 60 min, with human serum (10%)): -
Bactericide activity (growth / no growth), serum interference test (Pseudomonas aeruginosa [8]; contact time 60 min, without serum): -
Bactericide action (growth / no growth) (Pseudomonas aeruginosa [8]; contact time 120 min, 100 p.p.m.): -
Bactericide activity (growth / no growth), serum interference test (Pseudomonas aeruginosa [8]; contact time 120 min, with human serum (10%)): -
Bactericide activity (growth / no growth), serum interference test (Pseudomonas aeruginosa [8]; contact time 120 min, without serum): -
Bactericide action (growth / no growth) (B. subtilis; contact time 3 min): -
Bactericide action (growth / no growth) (B. subtilis; contact time 5 min): -
Bactericide action (growth / no growth) (B. subtilis; contact time 10 min): -
Bactericide action (growth / no growth) (B. subtilis; contact time 30 min): -
Bactericide action (growth / no growth) (B. subtilis; contact time 60 min): -
Bactericide action (growth / no growth) (B. subtilis; contact time 120 min): -
Bactericide action (growth / no growth) (Salmonella sp. [9]; contact time 3 min): -
Bactericide action (growth / no growth) (Salmonella sp. [9]; contact time 5 min): -
Bactericide action (growth / no growth) (Salmonella sp. [9]; contact time 10 min): -
Bactericide action (growth / no growth) (Salmonella sp. [9]; contact time 30 min): -
Bactericide action (growth / no growth) (Salmonella sp. [9]; contact time 60 min): -
Bactericide action (growth / no growth) (Salmonella sp. [9]; contact time 120 min): -
Bactericide action (growth / no growth) (Staph. aureus [10]; contact time 3 min): -
Bactericide action (growth / no growth) (Staph. aureus [10]; contact time 5 min): -
Bactericide action (growth / no growth) (Staph. aureus [10]; contact time 10 min): -
Bactericide action (growth / no growth) (Staph. aureus [10]; contact time 30 min): -
Bactericide action (growth / no growth) (Staph. aureus [10]; contact time 60 min): -
Bactericide action (growth / no growth) (Staph. aureus [10]; contact time 120 min): -
LD50 [11]: 85 mg/kg
